Assay results as given in patent US20260258084A1, “New Peptides as Selective IL-23 Receptor Antagonists” (Sanofi, priority 2022, published 2026).
Positions of bridges follow the written chain, without caps; N, C: chain ends. Non-standard residues stand in square brackets, D forms with d. Residues, ends and D or L forms follow the SMILES beside them. 2Nal = N[C@@H](Cc1ccc2ccccc2c1)C(=O)O; αMeL = CC(C)C[C@](C)(N)C(=O)O; Pen = CC(C)(S)[C@H](N)C(=O)O; Thp = NC1(C(=O)O)CCOCC1; Aib = CC(C)(N)C(=O)O; Ahx = NCCCCCC(=O)O; Ava = NCCCCC(=O)O

Molecular target: T1, human interleukin-23 receptor (recombinant human IL-23R-Fc chimera) (Homo sapiens, UniProt Q5VWK5)
T1 construct: Fc (IgG Fc fusion)
Test: Human ELISA IL23/IL23R (assay for specific human IL23R antagonists)
Type: binding
Conditions: Table 11, Pen peptide compounds; read-out: Elisa IC50 Pen
Experimental: Antagonism of compounds for human interleukin-23 receptor antagonists, was determined by an ELISA assay.
A 384-well plate was coated with 50 μl/well of human IL23 at a final concentration of […] and incubated overnight at 4° C. The wells were washed 3 times with 80 μl wash buffer and blocked with 80 μl blocking buffer for 60 minutes at room temperature and washed again. 20 μl of serially diluted test peptides was added to each well and subsequently 20 μl of recombinant human IL-23R-Fc chimera at final concentration of 0.1 μg/ml. The plate was incubated for 60 minutes at room temperature. After the wells were washed, bound IL23R-Fc was detected with goat anti-hu-IgG1-HRP antibody. Signals were visualized with QuantaBlu Fluorogenic Peroxidase Substrate.

Row | SMILES | IC50
1 | COc1ccc(C[C@@H]2NC(=O)[C@H]3NC(=O)[C@H](CCC(N)=O)NC(=O)[C@H](Cc4c[nH]c5ccccc45)NC(=O)[C@H]([C@@H](C)O)NC(=O)[C@H](CC(N)=O)NC(=O)[C@@H](NC(=O)CCCCNC(=O)CC[C@@H](C(=O)N[C@@H](CC(N)=O)C(=O)N[C@@H](CC(N)=O)C(N)=O)NC(=O)C(C)(C)NC(=O)[C@H](Cc4ccc5ccccc5c4)NC2=O)C(C)(C)SSC3(C)C)cc1 [compound 159] ([Ava][Pen]NTWQ[Pen]Y(Me)[2Nal][Aib]ENN-NH2; disulfide 2-7; lactam N-11) | 280 nM
2 | COc1ccc(C[C@@H]2NC(=O)[C@H]3NC(=O)[C@H](CCC(N)=O)NC(=O)[C@H](Cc4c[nH]c5ccccc45)NC(=O)[C@H]([C@@H](C)O)NC(=O)[C@H](CC(N)=O)NC(=O)[C@@H](NC(=O)CCCCCNC(=O)CC[C@@H](C(=O)N[C@@H](CC(N)=O)C(=O)N[C@@H](CC(N)=O)C(N)=O)NC(=O)C(C)(C)NC(=O)[C@H](Cc4ccc5ccccc5c4)NC2=O)C(C)(C)SSC3(C)C)cc1 [compound 160] ([Ahx][Pen]NTWQ[Pen]Y(Me)[2Nal][Aib]ENN-NH2; disulfide 2-7; lactam N-11) | 72.2 nM
3 | COc1ccc(C[C@@H]2NC(=O)[C@H]3NC(=O)[C@H](CCC(N)=O)NC(=O)[C@H](Cc4c[nH]c5ccccc45)NC(=O)[C@H]([C@@H](C)O)NC(=O)[C@H](CC(N)=O)NC(=O)[C@@H](NC(=O)CCCCCNC(=O)C[C@@H](C(=O)N[C@@H](CC(N)=O)C(=O)N[C@@H](CC(N)=O)C(N)=O)NC(=O)[C@](C)(CC(C)C)NC(=O)[C@H](Cc4ccc5ccccc5c4)NC2=O)C(C)(C)SSC3(C)C)cc1 [compound 162] ([Ahx][Pen]NTWQ[Pen]Y(Me)[2Nal][αMeL]DNN-NH2; disulfide 2-7; lactam N-11) | 33.5 nM

Now from value to compound:

Row | IC50 | SMILES
4 | 76.6 nM | COc1ccc(C[C@@H]2NC(=O)[C@H]3NC(=O)[C@H](CCC(N)=O)NC(=O)[C@H](Cc4c[nH]c5ccccc45)NC(=O)[C@H]([C@@H](C)O)NC(=O)[C@H](CC(N)=O)NC(=O)[C@@H](NC(=O)CCCCCNC(=O)CC[C@@H](C(=O)N[C@@H](CC(N)=O)C(=O)NCC(N)=O)NC(=O)C4(CCOCC4)NC(=O)[C@H](Cc4ccc5ccccc5c4)NC2=O)C(C)(C)SSC3(C)C)cc1 [compound 161] ([Ahx][Pen]NTWQ[Pen]Y(Me)[2Nal][Thp]ENG-NH2; disulfide 2-7 (inferred); lactam N-11 (inferred))
5 | 23.1 nM | COc1ccc(C[C@@H]2NC(=O)[C@@H]3CSSC(C)(C)[C@H](NC(=O)CCCCCNC(=O)C[C@@H](C(=O)N[C@@H](CC(N)=O)C(=O)N[C@@H](CC(N)=O)C(N)=O)NC(=O)C(C)(C)NC(=O)[C@H](Cc4ccc5ccccc5c4)NC2=O)C(=O)N[C@@H](CC(N)=O)C(=O)N[C@@H]([C@@H](C)O)C(=O)N[C@@H](Cc2c[nH]c4ccccc24)C(=O)N[C@@H](CCC(N)=O)C(=O)N3)cc1 [compound 164] ([Ahx][Pen]NTWQCY(Me)[2Nal][Aib]DNN-NH2; disulfide 2-7; lactam N-11)
